Patent US6747061B2, “N-substituted dithiocarbamates for the treatment of biological disorders” (AtheroGenics, Inc., priority 2000, dated 2004)
Read-outs that look alike come from different tables or passages of the source.

How the values were obtained:
[1] = system: eotaxin; assay: Eotaxin assay: enzyme immunoassay of TNF-α and IL-4 induced eotaxin expression in BEAS-2B cells; format: cell-based; conditions: Homo sapiens, TNF 10 ng/ml + IL-4, approximately 16 hours
Protocol: The eotaxin assay is an enzyme immunoassay to measure tumor necrosis factor alpha (TNF-α) and interleukin-4 (IL-4) induced expression of eotaxin in a human epithelial cell line (BEAS-2B).
BEAS-2B cells purchased from ATCC and maintained in DMEM/F12 plus 10% serum and penicillin plus streptomycin. In a typical experiment, cells were seeded in 96-well plates. The next day cells were stimulated with TNF (10 ng/ml)+IL-4 ([…]) in the presence or absence of compounds dissolved in dimethylsulphoxide (DMSO) in DMEM/F12 plus 1% rabbit serum albumin (RSA). To establish a dose curve for each compound, three concentrations in 2 fold increments were used. Cells were exposed to cytokines and compounds for approximately 16 hours. The next day, the cells were examined under microscope to score for visual signs of toxicity. The culture media was used to measure eotaxin level.
100 μl of anti-human eotaxin monoclonal antibody (3 μg/ml) purchased from R & D Systems was used to coat 96-well plates overnight at room temperature. […] 2N sulphuric acid stopped the color development and data were collected by a microplate reader set at O.D. 450 nm. The results were expressed as the percentage of control sample (cells stimulated by TNF without any compound).

[2] = system: SNU-C5 colorectal carcinoma cells; assay: Anti-proliferative effect on SNU-C5 cells (CellTiter96); format: cell-based; conditions: read-out: proliferation, percent of control; for activity at 1 µM: NDE 1 μM; for activity at 10 µM: NDE 10 μM; for activity at 100 µM: NDE 100 μM
Protocol: All primary cells and cell lines were commercially available. The transformed cell lines were grown in Dulbecco's Modified Eagle Media supplemented with 2 mM L-glutamine, 50 I.U. penicillin, 50 μg/ml streptomycin, nonessential amino acids and 10% heat-inactivated fetal bovine serum. HASM, HAEC and NHBE cells were cultured exactly as described by the commercial provider (Clonetics, San Diego, Calif.). All cell lines were grown at 37° C. in 5% CO2, with the media being changed every 48 hours.
For the experimental assays, cells were plated in 96-well plates and grown until ˜35% confluency was achieved. For the transformed cell lines, cells were plated at low density and grown for 72 hours prior to being stimulated, whereas the non-transformed cells were plated at a higher density and grown for 24 hours prior to being stimulated.
Cells were treated with dithiocarbamate (0.1-100 μM)±5FU (0.01-10 μM) and retreated after 48 hours when media was changed. Cell growth was assessed using the CellTiter96® assay system from Promega (Madison, Wis.). Each experimental condition was performed in triplicate or quadruplicate, with the number of experiments for each cell line being three.
Statistical significance was assessed using an ANOVA with the appropriate post-hoc analysis as well as Students t-tests. *=p<0.05 when compared to control-treated (DMSO) cells. #=p<0.05 when compared to 5FU-treated cells.

[3] = system: VCAM-1; assay: VCAM-1 assay: enzyme immunoassay of TNF-α induced VCAM-1 expression in endothelial cells; format: cell-based, Human; conditions: Homo sapiens, Endothelial cell; HAEC, TNF-α 1 ng/ml, approximately 16 hours; read-out: VCAM-1 IC50
Protocol: The VCAM-1 assay is an enzyme immunoassay to detect tumor necrosis factor alpha (TNF-α) induced Vascular Adhesion Molecule (VCAM-1) expression in endothelial cells.
Human endothelial cells (HAEC) were purchased from Clonetics and maintained in EGM media (Clonetics) supplemented with 5% fetal bovine serum (FBS). In a typical experiment, cells were seeded in 96-well plates. The next day cells were stimulated with TNF-α (1 ng/ml) purchased from Boehringer Mannheim in the presence or absence of compounds dissolved in dimethylsulphoxide (DMSO). To establish a dose curve for each compound, four concentrations in 2 fold increments were used. Cells were exposed to TNF-α and compounds for approximately 16 hours. The next day, cells were examined under microscope to score for visual signs of toxicity.
Media was discarded and the cells were washed once with Hanks buffered saline solution (HBSS)/phosphate buffered solution (PBS) 91:1). Primary mouse monoclonal antibody against VCAM-1 purchased from Southern Biotechnology Associates (0.25 μg/ml in HBSS/PBS+5% FBS) was added and incubated at 37° C. for 30 minutes. Cells were washed with HBSS/PBS three times, and secondary antibody horse radish peroxidase (HRP)-conjugated goat anti-mouse IgG purchased from Southern Biotechnology Associates (1:500 in HBSS/PBS+5% FBS) was added and incubated at 37° C. for 30 minutes. Cells were washed with HBSS/PBS four times and peroxidase substrate 3.3′,5,5′-tetramethyl-benzidine (TMB) was added and incubated in the dark at room temperature until there was adequate blue color development. The length of incubation time was typically 5-15 minutes. 2 N sulfuric acid was added to stop the color development and the data was collected by reading the absorbance at O.D. 450 nm. The result was expressed as the percentage of control sample (cells stimulated by TNF without any compound).

For COC(=O)CCCSC(=S)NCC1CCCO1 (centres unmarked) [NDE, 4-(tetrahydrofuran-2-ylmethylthiocarbamoylsulfanyl)-butyric acid methyl ester], the IC50 [1] was 6 µM, the activity at 1 µM ([2]; 24 HOURS) was 138 ± 24.2% and the activity at 1 µM ([2]; 48 HOURS) was 105 ± 7.42%. The activity at 1 µM ([2]; 72 HOURS) was 127 ± 16.4%, the activity at 10 µM ([2]; 24 HOURS) was 93.4 ± 15.9% and the activity at 10 µM ([2]; 48 HOURS) was 70.5 ± 8.42%. It also gave an activity at 10 µM ([2]; 72 HOURS) of 59.2 ± 4.1%, an activity at 100 µM ([2]; 24 HOURS) of 60 ± 10.8% and an activity at 100 µM ([2]; 48 HOURS) of 26.3 ± 8.64%. The activity at 100 µM ([2]; 72 HOURS) was 13.6 ± 1.31% and the IC50 [3] was 1.5 µM.
